Test results: patent US20240108744A1, “AURISTATIN DERIVATIVES AND CONJUGATES THEREOF” (priority 2022, published 2024)
Read-outs that look alike come from different tables or passages of the source. Square brackets hold non-standard residues; d marks the D form. Peptide text beside a SMILES is read from it. * marks the point of attachment. Dolaproine = CO[C@@H]([C@@H]1CCCN1)[C@@H](C)C(=O)O; Phe(βS-OH) = N[C@H](C(=O)O)[C@@H](O)c1ccccc1; Dil = CC[C@H](C)[C@H](NC)[C@@H](CC(=O)O)OC; X1 = CC(C)[C@@H](C(=O)*)N(C)CCS; X2 = CSCCN(C)[C@H](C(=O)*)C(C)C

What was measured:
Assay type in all cases: cell-based
NCI-H2110 = experiment: In vitro cytotoxicity (CCK-8) in NCI-H2110 cells; conditions: Homo sapiens
Description: (§1) Cytotoxic potencies of the compounds are assessed in flat-bottomed 96-well cell culture plates (Corning Costar) using cell counting Kit-8 (CCK-8) assay (Shanghai Life Lab Biotech Co., Ltd.). Briefly, human tumor cells (1,000-10,000 cells/well, depending on the cell line), in the appropriate culture medium are incubated, with the compounds, or with conjugates in the presence or absence of an excess of the corresponding unconjugated antibodies, for 120 hours, at 37° C., 5% CO2.
(§2) Dispensed 175 μL cell suspension in 96-well plate at 1500 cells per well and incubate for 24 hours in a humidified incubator (37° C., 5% CO2). Added 25 μL various concentrations of compound as a 5× solution into the cell culture medium (Fetal bovine serum, Invitrogen) in the plate and incubated for 120 hours in the incubator. Thawed CCK-8 on the bench top or in a 37° C. water bath, added 10 μL of CCK-8 to each well of the incubated plate (be careful not introducing air bubbles into the wells since they would interfere with the O. D. reading) and then further incubated for 1-4 hours in the incubator. Measured the absorbance at 450 nm using a SpectraMax i3x Microplate Reader and calculated the cell inhibition rate. The IC50 curves were generated along with the IC50 values by using GraphPad Prism software.

SK-OV-3 = experiment: In vitro cytotoxicity (CCK-8) in SK-OV-3 cells; conditions: Homo sapiens
Description: as §1, §2

HCC 827 = experiment: In vitro cytotoxicity (CCK-8) in HCC 827 cells; conditions: Homo sapiens
Description: as §1, §2

OVCAR-3 = experiment: In vitro cytotoxicity (CCK-8) in OVCAR-3 cells; conditions: Homo sapiens
Description: as §1, §2

SK-BR-3 = experiment: In vitro cytotoxicity (CCK-8) in SK-BR-3 cells; conditions: Homo sapiens, SK-BR-3 cell line, 120 hours incubation
Description: as §1, §2

JMT-1 = experiment: In vitro cytotoxicity (CCK-8) in JMT-1 cells; conditions: Homo sapiens, JMT-1 cell line, 120 hours incubation
Description: as §1, §2

BR 474 = experiment: In vitro cytotoxicity (CCK-8) in BR 474 cells; conditions: Homo sapiens, BR 474 cell line, 120 hours incubation
Description: as §1, §2

NCI-N87 = experiment: In vitro cytotoxicity (CCK-8) in NCI-N87 cells; conditions: Homo sapiens, NCI-N87 cell line, 120 hours incubation
Description: as §1, §2

[1] = NCI-H2110 cell line, 120 hours incubation, CCK-8, read-out: IC50
[2] = SK-OV-3 cell line, 120 hours incubation, CCK-8, read-out: IC50
[3] = HCC827, HCC 827 cell line, 120 hours incubation, CCK-8, read-out: IC50
[4] = OVCAR-3 cell line, 120 hours incubation, CCK-8, read-out: IC50

Compound `CC[C@@]1(O)C(=O)OCc2c1cc1n(c2=O)Cc2cc3c(CCCCO)c(C)c(F)cc3nc2-1` has an IC50 (NCI-H2110; [1]) of 0.85 nM, an IC50 (SK-OV-3; [2]) of 0.36 nM and an IC50 (HCC 827; [3]) of 0.78 nM. It also gave an IC50 (OVCAR-3; [4]) of 0.1 nM, an IC50 (SK-BR-3) of 0.014 nM and an IC50 (JMT-1) of 14 nM. The IC50 (BR 474) was > 1000 nM and the IC50 (NCI-N87) was 2.6 nM.
`CC[C@@]1(O)C(=O)OCc2c1cc1n(c2=O)Cc2c-1nc1cc(F)c(C)c3c1c2[C@@H](NC(=O)CO)CC3` was tested, and the IC50 (NCI-H2110; NCI-H2110, 120 h) was 4.1 nM, the IC50 (SK-OV-3; SK-OV-3, 120 h) was 3.6 nM and the IC50 (HCC 827; HCC827, 120 h) was 1.8 nM. The IC50 (OVCAR-3; OVCAR-3, 120 h) was 0.2 nM.
Compound `CC[C@H](C)[C@@H]([C@@H](CC(=O)N1CCC[C@H]1[C@H](OC)[C@@H](C)C(=O)N[C@H](C)[C@@H](O)c1ccccc1)OC)N(C)C(=O)[C@@H](NC(=O)[C@H](C(C)C)N(C)CCS)C(C)C` has an IC50 (NCI-H2110; [1]) of 10 nM, an IC50 (SK-OV-3; [2]) of 7.7 nM and an IC50 (SK-BR-3) of 1.7 nM. For the same compound, the IC50 (JMT-1) was 2.1 nM, the IC50 (BR 474) was 5.1 nM and the IC50 (NCI-N87) was 4.8 nM.
`CC[C@H](C)[C@@H]([C@@H](CC(=O)N1CCC[C@H]1[C@H](OC)[C@@H](C)C(=O)N[C@H](C)[C@@H](O)c1ccccc1)OC)N(C)C(=O)[C@@H](NC(=O)[C@H](C(C)C)N(C)CCSC)C(C)C` showed an IC50 (SK-BR-3) of 0.41 nM, an IC50 (JMT-1) of 0.49 nM and an IC50 (NCI-N87) of 0.94 nM.
For `CC[C@H](C)[C@@H]([C@@H](CC(=O)N1CCC[C@H]1[C@H](OC)[C@@H](C)C(=O)N[C@H](C(=O)O)[C@@H](O)c1ccccc1)OC)N(C)C(=O)[C@@H](NC(=O)[C@H](C(C)C)N(C)CCS)C(C)C` (X1-V[Dil][Dolaproine][Phe(βS-OH)]-OH), the IC50 (NCI-H2110; [1]) was 12 nM, the IC50 (SK-OV-3; [2]) was 38 nM and the IC50 (HCC 827; [3]) was 108 nM. It also gave an IC50 (OVCAR-3; [4]) of 67.6 nM.
Compound `CC[C@H](C)[C@@H]([C@@H](CC(=O)N1CCC[C@H]1[C@H](OC)[C@@H](C)C(=O)N[C@H](C(=O)O)[C@@H](O)c1ccccc1)OC)N(C)C(=O)[C@@H](NC(=O)[C@H](C(C)C)N(C)CCSC)C(C)C` (X2-V[Dil][Dolaproine][Phe(βS-OH)]-OH) has an IC50 (SK-BR-3) of 13.6 nM, an IC50 (JMT-1) of 36.1 nM and an IC50 (NCI-N87) of 32.3 nM.
